Reference: patent publication US11701355B2, “Levosimendan for treating pulmonary hypertension with heart failure with preserved ejection fraction (PH-HFpEF)” (Tenax Therapeutics, Inc., priority 2019, dated 2023)

How the values were obtained:
[1] = system: PH-HFpEF patients; experiment: Open-label extension (rollover) study: six-minute walk distance and Likert quality of life; format: in vivo, human
Method: This is an open-label rollover study to allow patients to continue levosimendan treatment if the patient has tolerated treatment in the HELP clinical study seen in Example 1.
Study drug concentrated solution (2.5 mg/mL), levosimendan, is mixed with diluent and administered as weekly infusions at 0.075 μg/kg/min for 24 hrs. Patients may have a dose escalation at Weeks 3 at a rate of 0.10 μg/kg/min for 24 hours, unless there has been a meaningful change in blood pressure or heart rate or other prohibitive rationale.
Visits at Weeks 3, 6, 12, 24, 48 and Follow-Up Visit (at termination) are performed within 72 hours of the scheduled weekly visit. These visits are performed at the investigator's office. The Follow-Up Visit (at termination) is calculated as the earlier of two years from the subject's date of entry into this extension study or as soon as possible after study discontinuation, but within 1 week. During this visit, the following procedures are performed: Vital signs; body weight (Week 3 only); 6MWT; Quality of Life assessment; NYHA Functional Class; Physician Assessment; assess adverse events, and concomitant medications and/or procedures.

[2] = Pharmacokinetic study, subcutaneous vs IV administration, plasma levosimendan and OR-1896 by HPLC/MS/MS; conditions: male, Sprague Dawley, rat, in vivo
Method: A pharmacokinetic study was conducted in male Sprague Dawley rats to compare subcutaneous administration of a composition of the present invention with IV administration of a formulation of levosimendan. The study evaluated levosimendan blood levels and pain at the injection site.
This study involved comparing the results of administering two subcutaneous compositions according to embodiments of the present invention to a previous pharmacokinetic study in which male rats were dosed by tail vein levosimendan as an IV bolus injection at 0.5 mg/kg using a 0.25 mg/ml solution. Thus, this study comprised three study arms: • a. IV administration of a composition comprising levosimendan (0.25 mg/ml) and phosphate buffer (10 mmolar), prepared in sterile water for injection and adjusted to a pH of 7.0 to 7.9 using 1 N NaOH or 10 N NaOH; this composition was administered at a dose of 0.5 mg/kg. • b. Subcutaneous administration of a composition comprising levosimendan (1.0 mg/ml), Captisol® (100 mg/ml), and phosphate buffer (10 mmolar), prepared in sterile water for injection and adjusted to a pH of 7.0 to 7.9 using 1 N NaOH or 10 N NaOH; this composition was administered at a dose of 0.5 mg/kg. • c. […]
Plasma samples were analyzed for levosimendan and OR-1896 (the primary metabolite) by HPLC/MS/MS. […]

[3] = system: patients afflicted with pulmonary hypertension; conditions: chronic dosing over an 8-week period; cited from earlier work

Question: Which “increase of six-minute walk distance, average” value ([1]; n=8) does the source give for C[C@@H]1CC(=O)NN=C1c1ccc(NN=C(C#N)C#N)cc1 [levosimendan, Levosimendan] here?
Answer: 30 meters

Question: What about the “patients with increased overall sense of well-being (five-point Likert Scale)” value ([1]; n=8) of the same molecule?
Answer: 7 out of 8

Question: And the “six-minute walk distance after levosimendan, average” value ([1]; n=8, baseline 292)?
Answer: 322 meters

Question: And the “improvement on the five-point Likert scale” value ([1]; patients who improved)?
Answer: 1-2 points

Question: What about the “start of the β phase (loss from blood mainly due to metabolism)” value [2] of the same molecule?
Answer: about 2 hours

Question: And the efficacy [3]?
Answer: failed to show efficacy
